Measurements: US20200115357A1, “LIVER X RECEPTORS (LXR) MODULATORS” (Phenex-FXR GmbH, priority 2017, published 2020)

Experiments:
Format in all cases: in vivo
[1] = Short term HFD mouse model, plasma and liver exposure; details: three oral doses of 20 mg/kg, HFD C57BL/6J mice; for Kp at 4 h: mouse, liver/plasma, read-out: liver/plasma ratio, 4 h; for liver exposure, 4 h / plasma exposure, 4 h: 4 h after final treatment
Procedure: (§1) Short Term HFD Mouse Model:
(§2) The in vivo transcriptional regulation of several LXR target genes by LXR modulators was assessed in mice.
For this, C57BL/6J were purchased from Elevage Janvier (Rennes, France) at the age of 8 weeks. After an acclimation period of two weeks, animals were preferred on a high fat diet (HFD) (Ssniff Spezialdiaten GmbH, Germany, Surwit EF D12330 mod, Cat. No. E15771-34), with 60 kcal % from fat plus 1% (w/w) extra cholesterol (Sigma-Aldrich, St. Louis, Mo.) for 5 days. Animals were maintained on this diet during treatment with LXR modulators. The test compounds were formulated in 0.5% hydroxypropylmethylcellulose (HPMC) and administered in three doses (20 mg/kg each) by oral gavage according to the following schedule: on day one, animals received treatment in the morning and the evening (ca. 17:00), on day two animals received the final treatment in the morning after a 4 h fast and were sacrificed 4 h thereafter. Animal work was conducted according to the national guidelines for animal care in Germany.
(§3) Upon termination, liver was collected, dipped in ice cold PBS for 30 seconds and cut into appropriate pieces. Pieces were snap frozen in liquid nitrogen and stored at −80° C. For the clinical chemistry analysis from plasma, alanine aminotransferase (ALT, IU/mL), cholesterol (CHOL, mg/dL) and triglycerides (TG, mg/dL) were determined using a fully-automated bench top analyzer (Respons®910, DiaSys Greiner GmbH, Flacht, Germany) with system kits provided by the manufacturer.

Fasn = test: Short term HFD mouse model, gene expression in liver tissue: Fasn; details: liver mRNA (qPCR, normalized to Tbp), three oral doses of 20 mg/kg, HFD mice
Procedure: as §1, §2
(§4) For this, C57BL/6J were purchased from Elevage Janvier (Rennes, France) at the age of 8 weeks. After an acclimation period of two weeks, animals were preferred on a high fat diet (HFD) (Ssniff Spezialdiaten GmbH, Germany, Surwit EF D12330 mod, Cat. No. E15771-34), with 60 kcal % from fat plus 1% (w/w) extra cholesterol (Sigma-Aldrich, St. Louis, Mo.) for 5 days. Animals were maintained on this diet during treatment with LXR modulators. […]
as §3, with “Pieces were snap frozen in liquid nitrogen and stored at −80° C.” left out, “manufacturer. […]” for “manufacturer.”
(§5) To obtain total RNA from frozen liver tissue, samples (25 mg liver tissue) were first homogenized with RLA buffer (4M guanidin thiocyanate, 10 mM Tris, 0.97% w:v β-mercapto-ethanol). […] Quantitative PCR was performed and analyzed using Prime time Gene expression master mix (Integrated DNA Technologies, Coralville, Iowa, USA) and a 384-format ABI 7900HT Sequence Detection System (Applied Biosystems, Foster City, USA). […]

Scd1 = test: Short term HFD mouse model, gene expression in liver tissue: Scd1; details: liver mRNA (qPCR, normalized to Tbp), three oral doses of 20 mg/kg, HFD mice
Procedure: as §1, §2, §4
as §3, with “Pieces were snap frozen in liquid nitrogen and stored at −80° C.” left out, “manufacturer. […]” for “manufacturer.”
as §5

Hepatic LXR target genes = test: Short term HFD mouse model, hepatic LXR target genes (summary in words); details: multiple oral dosing in mice
Procedure: as §1, §2, §4
as §5, with “USA). The expression of the following genes was analysed: Stearoyl-CoA desaturase1 (Scd1), fatty acid synthase (Fas) and sterol regulatory element-binding protein1 (Srebp1).” for “USA).”

Row | Kp at 4 h [1] | liver exposure, 4 h [1] [µM] | plasma exposure, 4 h [1] [nM] | Structure (SMILES) | Fasn suppression compared to vehicle (Fasn) | Scd1 suppression compared to vehicle (Scd1) | Hepatic LXR target genes (in words) (Hepatic LXR target genes)
1 | 52.4 | 5.359 | 102 | Cc1ccc2ccccc2c1S(=O)(=O)N(Cc1ccc(-c2cccc(C(C)(C)C(=O)O)c2)cc1)Cc1ccc(C(F)(F)F)o1 [Example 24, 2-Methyl-2-(4′-(((2-methyl-N-((5-(trifluoromethyl)furan-2-yl)methyl)naphthalene)-1-sulfonamido)methyl)-[1,1′-biphenyl]-3-yl)propanoic acid] | 0.23 | 0.25 | effectively suppressed
2 | 33.3 | 4.372 | 131 | Cc1cc(C)c(S(=O)(=O)N(Cc2ccc(C(F)(F)F)o2)Cc2ccc(-c3cccc(C(C)(C)C(=O)O)c3)cc2Cl)c(C)c1 [10/5] | 0.41 | 0.38 | effectively suppressed
